# Assay results from patent publication US11510852B2 (THE ROYAL INSTITUTION FOR THE ADVANCEMENT OF …, priority 2019, dated 2022).
# Key:
# [1] = UV visible spectroscopy of supernatant after addition of composite resin powder; format: binding; conditions: 306 nm methyl salicylate, 272 nm thymol
# Procedure: (§1) To analyze how the different tested molecules (methyl salicylate, thymol and spearmint oil) interact with composite and the tooth structure UV Visible spectroscopy was used. Dilute solutions of the three tested molecules were prepared. […] The resulting solutions were analyzed in triplicates using UV visible spectrophotometer (Evolution 200 series, Thermo Scientific, Madison, USA) and the resulting absorbance peaks were plotted as control (FIG. 1). After this, equal weights of composite resin and hydroxy-apatite powders were added to equal volumes of the diluted solutions of the three tested molecules.
# (§2) The characterization of the interaction between the staining components and both composite resin and the tooth structure was performed using UV visible spectroscopy which was chosen to characterize indirectly the insoluble powder; a method that is largely used in pharmaceutical industry. In this method, different weights of insoluble polymer are added to a known concentration of a solute with a clear fingerprint in UV-vis spectrum. After each addition, the filtered solutions are then analyzed using UV-vis spectrophotometer and the resultant effect on the UV spectrum is compared to the baseline readings.
# [2] = UV visible spectroscopy of supernatant after addition of hydroxy-apatite powder; format: binding; conditions: 306 nm MeSa, 272 nm thymol
# Procedure: as §1, §2
Structure (SMILES),decrease of main absorbance peak ([1]; 0.3 g composite resin),decrease of main absorbance peak ([1]; 0.5 g composite resin),decrease of main absorbance peak ([1]; 0.8 g composite resin),change of main absorbance peak ([2]; 0.3 g hydroxy-apatite),change of main absorbance peak ([2]; 0.5 g hydroxy-apatite),change of main absorbance peak ([2]; 0.8 g hydroxy-apatite)
COC(=O)c1ccccc1O [methyl salicylate],37±3.9%,38±25%,85±12%,13±22%,11±14%,1.1±15%
Cc1ccc(C(C)C)c(O)c1 [thymol],47±17%,55±1.2%,66±2.9%,14±3.3%,10±9.2%,7±1.6%
